How the values were obtained:
HTU-LOX (HTU-QV variant) = target: T1, HTU-LOX (HTU-QV variant) (Haloterrigena turkmenica, UniProt D2RU96); experiment: Amplex red / horseradish peroxidase fluorometric H2O2 release assay; assay type: biochemical; details: inhibitor, bought as fumarate salt; 0.1 mM used as negative control; 0.1 M borate pH 8.3, 37 °C
T1 construct: gene Htur_0264; delta1-91, catalytic domain, N-terminus Gln92-Val; His-tag kept (pQE-30); full-length protein 308 residues, 33,829 Da

HTU-LOX (HTU-AA variant) = target: T2, HTU-LOX (HTU-AA variant) (Haloterrigena turkmenica, UniProt D2RU96); experiment: as above; assay type: biochemical; details: 0.1 M borate pH 8.3, 37 °C; Cu2+-refolded enzyme
T2 construct: gene Htur_0264; delta1-34, signal peptide removed, N-terminus Ala35-Ala; His-tag kept (pQE-30); full-length protein 308 residues
T2 sequence (D2RU96 35-296): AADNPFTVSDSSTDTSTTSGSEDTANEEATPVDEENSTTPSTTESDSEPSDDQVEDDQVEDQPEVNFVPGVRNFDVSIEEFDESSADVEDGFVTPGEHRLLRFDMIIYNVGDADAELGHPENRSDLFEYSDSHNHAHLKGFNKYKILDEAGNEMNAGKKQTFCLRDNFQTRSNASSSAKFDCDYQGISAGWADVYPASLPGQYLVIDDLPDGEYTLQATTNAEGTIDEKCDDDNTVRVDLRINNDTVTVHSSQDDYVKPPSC

Compound	Amplex red / horseradish peroxidase fluorometric H2O2 release assay (HTU-LOX (HTU-QV variant))	Amplex red / horseradish peroxidase fluorometric H2O2 release assay (HTU-LOX (HTU-AA variant))
N#CCCN [3-aminopropionitrile]	HTU-LOX demonstrated good sensitivity to the classical inhibitor of all LOXes—3-aminopropionitrile (BAPN)	–
NCCc1c[nH]cn1 [histamine]	–	Refolded proteins HTU-QV and HTU-AA exhibit activity against a wide variety of primary amines

Reference: PMC6452851, “Properties of a cryptic lysyl oxidase from haloarchaeon Haloterrigena turkmenica” (PeerJ, 2019)
